Assay results published in US9061060B2, “Deuterated benzylbenzene derivatives and methods of use” (Theracos Inc., priority 2008, dated 2015).

Legend:
beagle dogs = test: Urinary glucose excretion in beagle dogs; assay type: in vivo; details: separate experiment (Table 4A)
Experimental: Each test compound was dissolved in 10% PEG400 and administered orally to overnight-fasted beagle dogs by gavage at the dose level of 0.03 mg/kg. Control dogs were given 10% PEG400 only. One hour post dosing, glucose solution (2 g/kg, 5 mL/kg) was administered by oral gavage. Urine was collected within metabolic cages from 0 to 8 hours, and 8 to 24 hours post-dosing for urine volume and glucose measurement. Food was removed 16 hours before dosing and then provided 3 hours after dosing. Water was supplied ad libitum. The concentration of urinary glucose was determined at 8 hours and 24 hours post-dose using a biochemistry analyzer.

[1] = Metabolism in SD rats: distribution of metabolites in urine; assay type: in vivo; details: male SD rats, 50 mg/kg oral, five consecutive days, HPLC
Experimental: Each test compound was dissolved in 30% PEG400 and administered orally to male SD rats by gavages at the dose level of 50 mg/kg (when using co-crystals, the weight calculation was based on free drug) for five consecutive days. Control rats were given 30% PEG400 only. All rats were housed in metabolic cages individually. Food and water were supplied ad libitum. Clinical observations (with attention to diarrhea symptoms) were performed twice daily. Food and water consumption were determined daily. Urine was collected pre-determined intervals: pre-dose, 0-4 hours, 4-8 hours, and 8-24 hours post-dose. Metabolites were analyzed and identified by LC/MS. The structures of the metabolites were confirmed by re-synthesis or isolation from the urine by preparative HPLC and NMR analysis. On day 6, all animals were sacrificed and gross necropsy was performed. The urine from two rats for each test compound was collected and pooled. The samples were diluted (1 mL urine in 4 mL of methanol) and analyzed by LC-MS: Waters 2695 Separations Module equipped with a Waters 2996 Photodiode Array Detector and a Waters Micromass ZQ Detector; Waters XTerra C18 3.5 μm, 20 mm×2.1 mm column, 1.0 mL/min, detection at 190-400 nm; 1.7 min gradient 10-50% A, followed by 1.8 min gradient 50-95% A, hold 1 min at 95% A; solvent A: 100% acetonitrile+0.045% formic acid; solvent B: Milli-Q water+0.1% formic acid. The urine samples were analyzed from 0-4 hours, 4-8 hours, 8-24 hours and 0-24 hours after administration. The ratio of metabolites was highly consistent within each time for each rat. The metabolites were identified by mass then re-synthesized to confirm their identity and the relative distribution was assayed using HPLC. […] See also FIGS. 1, 2A-2C, 3A-3D, and 4A-4C.

human SGLT1 = target: T1, human SGLT1 (Homo sapiens, UniProt P13866); details: read-out: SGLT1 IC50; COS-7 cells expressing human SGLT1; 25% human serum; 2 hours
T1 sequence (P13866 1-664): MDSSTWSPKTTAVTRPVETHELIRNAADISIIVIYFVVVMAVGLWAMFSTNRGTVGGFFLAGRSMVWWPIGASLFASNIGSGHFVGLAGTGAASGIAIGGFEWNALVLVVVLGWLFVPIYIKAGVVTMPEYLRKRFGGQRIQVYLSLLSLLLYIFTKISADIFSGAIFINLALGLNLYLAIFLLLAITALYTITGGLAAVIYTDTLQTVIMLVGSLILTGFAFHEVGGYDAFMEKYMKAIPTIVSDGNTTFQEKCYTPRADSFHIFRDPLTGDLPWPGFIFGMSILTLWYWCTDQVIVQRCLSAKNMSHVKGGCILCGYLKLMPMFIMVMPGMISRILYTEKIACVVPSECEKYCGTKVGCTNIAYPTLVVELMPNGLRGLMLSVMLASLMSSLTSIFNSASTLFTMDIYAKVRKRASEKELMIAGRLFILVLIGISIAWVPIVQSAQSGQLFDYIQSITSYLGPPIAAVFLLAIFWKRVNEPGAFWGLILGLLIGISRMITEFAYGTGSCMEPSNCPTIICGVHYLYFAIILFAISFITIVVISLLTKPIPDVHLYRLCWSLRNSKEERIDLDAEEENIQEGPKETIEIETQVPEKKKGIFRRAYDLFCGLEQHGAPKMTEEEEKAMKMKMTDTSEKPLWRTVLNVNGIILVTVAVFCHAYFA
Experimental: Full-length human SGLT1 cDNA in the pDream2.1 expression vector was obtained from GenScript Corporation and propagated in Escherichia coli strain DH5α using Luria-Bertani (LB) medium containing ampicillin. Plasmid DNA was isolated using the QIAGEN Plasmid Midi Kit (QIAGEN Inc.). […] Transfected cells were stored in DMEM containing 10% dimethyl sulfoxide (DMSO) at −80° C.
Cells expressing SGLT1 or SGLT2 were seeded on 96-well ScintiPlate scintillating plates (PerkinElmer, Inc.) in DMEM containing 10% FBS (1×10^5 cells per well in 1001 medium) incubated at 37° C. under 5% CO2 for 48 hours prior to the assay. […] Cells were washed twice with 150 μl of wash buffer (137 mM N-methylglucamine, 10 mM Tris/Hepes, pH 7.2) and methyl-α-D-[U-^14C]glucopyranoside uptake was quantified using a TopCount scintillation counter (PerkinElmer, Inc.). Sodium-dependent glucopyranoside uptake was measured by subtracting the values obtained with sodium-free buffer from those obtained using sodium buffer (average of triplicate determinations). The IC50 for SGLT2 and SGLT1 were determined, and the selectivity for SGLT2 inhibition was calculated by dividing the SGLT1 IC50 by the SGLT2 IC50.

SD rats = test: Urinary glucose excretion in SD rats; assay type: in vivo; details: 1 mg/kg oral
Experimental: Each test compound was dissolved in 30% PEG400 and administered orally to overnight-fasted SD rats by gavage at the dose level of 1 mg/kg. Control rats were given 30% PEG400 only. One hour post dosing, glucose solution (2 g/kg, 10 mL/kg) was administered by oral gavage. Urine was collected within metabolic cages from 0 to 4 hours, and 4 to 24 hours post-dosing for urine volume and glucose measurement. Food was removed 16 hours before dosing and then provided 4 hours after dosing. Water was supplied ad libitum. The concentration of urinary glucose was determined at 4 hours and 24 hours post-dose using a biochemistry analyzer. Results were recorded for the periods 0-4 hours, 4-24 hours and 0-24 hours, and expressed as a percentage of the urinary glucose excretion (UGE) seen with reference compound A, which was run as a positive control in all experiments.

CYP2C19 = target: T2, CYP2C19 (Homo sapiens, UniProt P33261); test: P450-Glo CYP screening kit, CYP2C19 inhibition; assay type: in vitro ADME; details: luminescence, read-out: IC50 2C19
T2 construct: purchased Promega
Excerpt: (§1) P450-Glo™ CYP Screening Kits for CYP1A2, CYP3A4 and CYP2C19 were purchased from Promega. […] Luminescence was quantified using a Victor 3 spectrophotometer (PerkinElmer).

CYP1A2 = target: T3, CYP1A2 (Homo sapiens, UniProt P05177); test: P450-Glo CYP screening kit, CYP1A2 inhibition; assay type: in vitro ADME; details: luminescence, read-out: IC50 1A2
T3 construct: purchased Promega
T3 sequence (P05177 1-516): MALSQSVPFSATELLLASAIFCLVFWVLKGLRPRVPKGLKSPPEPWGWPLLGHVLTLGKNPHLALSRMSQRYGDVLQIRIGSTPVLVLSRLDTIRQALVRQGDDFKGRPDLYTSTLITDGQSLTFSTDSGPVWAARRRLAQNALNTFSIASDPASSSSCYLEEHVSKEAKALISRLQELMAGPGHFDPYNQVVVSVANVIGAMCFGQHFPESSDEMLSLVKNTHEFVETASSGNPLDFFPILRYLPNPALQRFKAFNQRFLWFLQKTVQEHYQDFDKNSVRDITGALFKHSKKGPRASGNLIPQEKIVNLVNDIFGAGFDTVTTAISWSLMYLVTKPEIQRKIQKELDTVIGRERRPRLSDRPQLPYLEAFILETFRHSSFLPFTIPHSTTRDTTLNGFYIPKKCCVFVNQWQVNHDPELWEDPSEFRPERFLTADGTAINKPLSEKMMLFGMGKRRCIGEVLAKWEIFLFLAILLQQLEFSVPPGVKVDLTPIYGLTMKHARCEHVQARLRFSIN
Excerpt: as §1

T2 sequence (P33261 whole entry): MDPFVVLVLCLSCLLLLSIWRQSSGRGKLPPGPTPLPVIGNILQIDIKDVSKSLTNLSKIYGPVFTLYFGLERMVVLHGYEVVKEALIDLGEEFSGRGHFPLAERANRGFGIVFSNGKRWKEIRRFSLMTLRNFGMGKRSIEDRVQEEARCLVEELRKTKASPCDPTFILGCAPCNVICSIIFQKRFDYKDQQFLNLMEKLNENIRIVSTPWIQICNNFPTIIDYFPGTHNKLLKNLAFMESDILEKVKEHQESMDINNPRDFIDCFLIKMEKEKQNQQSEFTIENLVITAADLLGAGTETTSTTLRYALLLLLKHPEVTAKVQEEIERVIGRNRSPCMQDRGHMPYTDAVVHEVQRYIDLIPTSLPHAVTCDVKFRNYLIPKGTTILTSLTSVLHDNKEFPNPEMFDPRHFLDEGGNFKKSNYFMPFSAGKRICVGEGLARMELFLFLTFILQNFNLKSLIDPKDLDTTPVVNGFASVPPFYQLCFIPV

Distribution of Metabolites in Urine (% of total), Peak 1 (Parent) [1] [%]	IC50 (human SGLT1) [nM]	IC50 (CYP2C19) [µM]	IC50 (CYP1A2) [mM]	Structure (SMILES)	Urinary Glucose Excretion in Dogs, 0-8 h (mean ± SD) (beagle dogs; 0-8 h) [mg]	Urinary Glucose Excretion in Dogs, 0-24 h (mean ± SD) (beagle dogs) [mg]	Urinary Glucose Excretion in Dogs, 8-24 h (mean ± SD) (beagle dogs) [mg]	Urinary Glucose Excretion in Rats, 0-4 h, % relative to Ref A (SD rats; 0-4 h) [%]	Urinary Glucose Excretion in Rats, 0-24 h, % relative to Ref A (SD rats) [%]	Urinary Glucose Excretion in Rats, 4-24 h, % relative to Ref A (SD rats; 4-24 h) [%]	Urinary Glucose Excretion in Rats, 0-4 h (mean ± SD) (SD rats; glucose 2 g/kg 1 h post dose, 0-4 h) [mg]	Urinary Glucose Excretion in Rats, 0-24 h (mean ± SD) (SD rats; glucose 2 g/kg 1 h post dose) [mg]	Urinary Glucose Excretion in Rats, 4-24 h (mean ± SD) (SD rats; glucose 2 g/kg 1 h post dose, 4-24 h) [mg]
72	540	195	> 1	COc1ccc(Cc2cc([C@@H]3O[C@H](CO)[C@@H](O)[C@H](O)[C@H]3O)ccc2Cl)cc1 [Ref B, (2S,3R,4R,5S,6R)-2-(4-chloro-3-(4-methoxybenzyl)phenyl)-6-(hydroxymethyl)tetrahydro-2H-pyran-3,4,5-triol, reference compound]	3322 ± 464	16726 ± 1507	13404 ± 1888	122	78	74	233 ± 35	1889 ± 361	1657 ± 354
87	820	355	> 1	[2H]C([2H])([2H])Oc1ccc(C([2H])([2H])c2cc([C@@H]3O[C@H](CO)[C@@H](O)[C@H](O)[C@H]3O)ccc2Cl)cc1 [compound 19, (2S,3R,4R,5S,6R)-2-(4-chloro-3-((4-(methoxy-d3)phenyl)methyl-d2)phenyl)-6-(hydroxymethyl)tetrahydro-2H-pyran-3,4,5-triol]	–	15928 ± 321	12516 ± 485	–	83	–	–	2096 ± 332	–
